Experimental data as given in patent publication EP0390135A1, “Pyrroloquinoline derivatives, antimicrobial agents using the same and process for preparing the same” (OTSUKA PHARMACEUTICAL CO., LTD., priority 1989, dated 1990).
In brackets after ≈: the same amount, converted by molar mass. Structures can show the parent of a compound that is named as a salt. Where two headings read alike, the source gives them in different places.

Legend:
A.calcoaceticus Ac-54 = experiment: MIC by agar plate dilution method; type: cell-based
Protocol: (§1) In order to investigate the in vitro activity of the under-mentioned compounds against various bacteria, the minimal inhibitory concentration (MIC, µg/mℓ) values were determined by the agar plate dilution method (see Chemotherapy, 22, 1126-1128 (1974)]. The results are shown in Table 1.

E.coli NIHJ JC-2 = experiment: MIC by agar plate dilution method; type: cell-based
Protocol: as §1

E.facalis ATCC-21212 = experiment: MIC by agar plate dilution method; type: cell-based; details: in vitro
Protocol: as §1

K.pneumoniae NCTC-9632 = experiment: MIC by agar plate dilution method; type: cell-based
Protocol: as §1

M.morganii IID Kono = experiment: MIC by agar plate dilution method; type: cell-based; details: in vitro
Protocol: as §1

P.aeruginosa ATCC-10145 = experiment: MIC by agar plate dilution method; type: cell-based
Protocol: as §1

P.aeruginosa E-2 = experiment: MIC by agar plate dilution method; type: cell-based
Protocol: as §1

P.mirabilis ATCC-29906 = experiment: MIC by agar plate dilution method; type: cell-based
Protocol: as §1

S.aureus FDA209P = experiment: MIC by agar plate dilution method; type: cell-based; details: in vitro
Protocol: as §1

S.marcoscons IFO-12648 = experiment: MIC by agar plate dilution method; type: cell-based; details: in vitro
Protocol: as §1

physchem = details: water, Ratio of dissolution to water
[1] = Ratio of dissolution to water (water solubility)
[2] = Acinetobacter calcoaceticus, AC54, in vitro, read-out: MIC
[3] = Escherichia coli, NIHJJC2, in vitro, read-out: MIC
[4] = Klebsiella pneumoniae, NCTC9632, in vitro, read-out: MIC
[5] = Morganella morganii, read-out: MIC
[6] = Pseudomonas aeruginosa, ATCC10145, in vitro, read-out: MIC
[7] = Pseudomonas aeruginosa, E2, in vitro, read-out: MIC
[8] = Proteus mirabilis, ATCC29906, in vitro, read-out: MIC
[9] = Staphylococcus aureus, FDA209P, read-out: MIC
[10] = Ratio of dissolution to water, at 20 °C

| MIC (A.calcoaceticus Ac-54; [2]) | MIC (E.coli NIHJ JC-2; [3]) | MIC (E.facalis ATCC-21212; read-out: MIC) | MIC (K.pneumoniae NCTC-9632; [4]) | MIC (M.morganii IID Kono; [5]) | MIC (P.aeruginosa ATCC-10145; [6]) | MIC (P.aeruginosa E-2; [7]) | MIC (P.mirabilis ATCC-29906; [8]) | MIC (S.aureus FDA209P; [9]) | MIC (S.marcoscons IFO-12648; read-out: MIC) | SMILES | other results |
| --- | --- | --- | --- | --- | --- | --- | --- | --- | --- | --- | --- |
| 0.2 µg/mL (≈ 0.579 µM) | 0.1 µg/mL (≈ 0.29 µM) | 1.56 µg/mL (≈ 4.52 µM) | 0.1 µg/mL (≈ 0.29 µM) | 0.1 µg/mL (≈ 0.29 µM) | 3.13 µg/mL (≈ 9.06 µM) | 1.56 µg/mL (≈ 4.52 µM) | 0.39 µg/mL (≈ 1.13 µM) | 0.2 µg/mL (≈ 0.579 µM) | 0.1 µg/mL (≈ 0.29 µM) | CC1Cc2c(N3CCN(C)CC3)c(F)cc3c(=O)c(C(=O)O)cn1c23 (racemic) [Test Compound E, 8-fluoro-2-methyl-9-(4-methyl-1-piperazinyl)-6-oxo-1,2-dihydro-6H-pyrrolo[3,2,1-ij]quinoline-5-carboxylic acid, reference compound] | – |
| 0.39 µg/mL (≈ 1.18 µM) | 0.05 µg/mL (≈ 0.151 µM) | 3.13 µg/mL (≈ 9.45 µM) | 0.05 µg/mL (≈ 0.151 µM) | 0.024 µg/mL (≈ 0.0724 µM) | 0.39 µg/mL (≈ 1.18 µM) | 0.39 µg/mL (≈ 1.18 µM) | 0.1 µg/mL (≈ 0.302 µM) | 0.2 µg/mL (≈ 0.604 µM) | 0.1 µg/mL (≈ 0.302 µM) | CC1Cc2c(N3CCC(N)C3)c(F)cc3c(=O)c(C(=O)O)cn1c23 (single isomer, unassigned; (+)) [Example 17, (+)-8-fluoro-2-methyl-9-(3-amino-1-pyrrolidinyl)-6-oxo-1,2-dihydro-6H-pyrrolo[3,2,1-ij]quinoline-5-carboxylic acid] | – |
| 0.39 µg/mL (≈ 1.08 µM) | 0.1 µg/mL (≈ 0.277 µM) | 3.13 µg/mL (≈ 8.66 µM) | 0.1 µg/mL (≈ 0.277 µM) | 0.1 µg/mL (≈ 0.277 µM) | 3.13 µg/mL (≈ 8.66 µM) | 1.5 µg/mL (≈ 4.15 µM) | 0.39 µg/mL (≈ 1.08 µM) | 0.2 µg/mL (≈ 0.553 µM) | 0.2 µg/mL (≈ 0.553 µM) | CC1COc2c(N3CCN(C)CC3)c(F)cc3c(=O)c(C(=O)O)cn1c23 (stereo not drawn) [Test Compound G, S-(-)-9-fluoro-3-methyl-10-(4-methyl-1-piperazinyl)-7-oxo-2,3-dihydro-7H-pyrido[1,2,3-de][1,4]benzoxazine-6-carboxylic acid, reference compound] | – |

More lines, now with the values behind:

| SMILES | MIC (A.calcoaceticus Ac-54; [2]) | MIC (E.coli NIHJ JC-2; [3]) | MIC (E.facalis ATCC-21212; read-out: MIC) | MIC (K.pneumoniae NCTC-9632; [4]) | MIC (M.morganii IID Kono; [5]) | MIC (P.aeruginosa ATCC-10145; [6]) | MIC (P.aeruginosa E-2; [7]) | MIC (P.mirabilis ATCC-29906; [8]) | MIC (S.aureus FDA209P; [9]) | MIC (S.marcoscons IFO-12648; read-out: MIC) | other results |
| --- | --- | --- | --- | --- | --- | --- | --- | --- | --- | --- | --- |
| CC1CN(c2c(Cl)cc3c(=O)c(C(=O)O)cn4c3c2CC4C)CCN1.Cl (single isomer, unassigned; (+)) [Example 11, (+)-8-chloro-2-methyl-9-(3-methyl-1-piperazinyl)-6-oxo-1,2-dihydro-6H-pyrrolo[3,2,1-ij]quinoline-5-carboxylic acid hydrochloride] | 0.78 µg/mL | 0.1 µg/mL | 6.25 µg/mL | 0.1 µg/mL | 0.024 µg/mL | 0.78 µg/mL | 0.78 µg/mL | 0.2 µg/mL | 0.39 µg/mL | 0.2 µg/mL | solubility (physchem): 231 mg/mL |
| CC(C)NCC1CCN(c2c(F)cc3c(=O)c(C(=O)O)cn4c3c2CC4C)C1 (single isomer, unassigned; (+)) [Example 19, (+)-8-fluoro-2-methyl-9-[3-(isopropylaminomethy 1-pyrrolidyl]-6-oxo-1,2-dihydro-6H-pyrrolo[3,2,1-ij]quinoline-5-carboxylic acid hydrochloride] | – | – | – | – | – | – | – | – | – | – | solubility [1, 10]: 135 mg/mL |
| CC1CN(c2c(F)cc3c(=O)c(C(=O)O)cn4c3c2CC4C)CC(C)N1.Cl (single isomer, unassigned; (+)) [Example 12, (+)-8-fluoro-2-methyl-9-(3,5-dimethyl-1-piperazinyl)-6-oxo-1,2-dihydro-6H-pyrrolo[3,2,1-ij]quinoline-5-carboxylic acid hydrochloride] | – | – | – | – | – | – | – | – | – | – | solubility [1]: 175 mg/mL |
| CC1Cc2c(N3CCC(N)C3)c(F)cc3c(=O)c(C(=O)O)cn1c23.Cl (single isomer, unassigned; (+)) [Example 17 hydrochloride, (+)-8-fluoro-2-methyl-9-(3-amino-1-pyrrolidyl)-6-oxo-1,2-dihydro-6H-pyrrolo[3,2,1-ij]quinoline-5-carboxylic acid hydrochloride] | – | – | – | – | – | – | – | – | – | – | solubility (physchem): 158 mg/mL |
| CC1Cc2c(N3CCN(C)CC3)c(F)cc3c(=O)c(C(=O)O)cn1c23.Cl (racemic) [Reference Example 3, (±)-8-fluoro-2-methyl-9-(4-methyl-1-piperazinyl)-6-oxo-1,2-dihydro-6H-pyrrolo[3,2,1-ij]quinoline-5-carboxylic acid hydrochloride, reference compound] | – | – | – | – | – | – | – | – | – | – | solubility (physchem): 12 mg/mL |
| CCNCC1CCN(c2c(F)cc3c(=O)c(C(=O)O)cn4c3c2CC4C)C1.Cl (single isomer, unassigned; (+)) [Example 18, (+)-8-fluoro-2-methyl-9-[3-(ethylaminomethyl)-1-pyrrolidinyl]-6-oxo-1,2-dihydro-6H-pyrrolo[3,2,1-ij]quinoline-5-carboxylic acid hydrochloride] | – | – | – | – | – | – | – | – | – | – | solubility [1]: 195 mg/mL |
| CC1Cc2c(N3CCN(C)CC3)c(F)cc3c(=O)c(C(=O)O)cn1c23 (single isomer, unassigned; (+)) [Example 7, (+)-8-fluoro-2-methyl-9-(4-methyl-1-piperazinyl)-6-oxo-1,2-dihydro-6H-pyrrolo[3,2,1-ij]quinoline-5-carboxylic acid] | – | – | – | – | – | – | – | – | – | – | MIC (A.calcoaceticus Ac-54; in vitro, listed as A): 0.1 µg/mL (≈ 0.29 µM); MIC (E.coli NIHJ JC-2; in vitro, listed as A): 0.05 µg/mL (≈ 0.145 µM); MIC (E.facalis ATCC-21212; listed as A): 0.78 µg/mL (≈ 2.26 µM); MIC (K.pneumoniae NCTC-9632; in vitro, listed as A): 0.05 µg/mL (≈ 0.145 µM); MIC (M.morganii IID Kono; listed as A): 0.05 µg/mL (≈ 0.145 µM); MIC (P.aeruginosa ATCC-10145; in vitro, listed as A): 1.56 µg/mL (≈ 4.52 µM); MIC (P.aeruginosa E-2; in vitro, listed as A): 0.78 µg/mL (≈ 2.26 µM); MIC (P.mirabilis ATCC-29906; in vitro, listed as A): 0.2 µg/mL (≈ 0.579 µM); MIC (S.aureus FDA209P; listed as A): 0.1 µg/mL (≈ 0.29 µM); MIC (S.marcoscons IFO-12648; listed as A): 0.05 µg/mL (≈ 0.145 µM) |
| CC1Cc2c(N3CCN(C)CC3)c(F)cc3c(=O)c(C(=O)O)cn1c23 (single isomer, unassigned) [Example 7 hydrochloride] | – | – | – | – | – | – | – | – | – | – | solubility [1, 10]: 230 mg/mL |
| CC1CN(c2c(F)cc3c(=O)c(C(=O)O)cn4c3c2CC4C)CCN1.Cl (racemic) [Example 10, (±)-8-fluoro-2-methyl-9-(3-methyl-1-piperazinyl)-6-oxo-1,2-dihydro-6H-pyrrolo[3,2,1-ij]quinoline-5-carboxylic acid hydrochloride] | – | – | – | – | – | – | – | – | – | – | solubility (physchem): 152 mg/mL |
| CC1Cc2c(N3CCN(C)CC3)c(F)cc3c(=O)c(C(=O)O)cn1c23 (single isomer, unassigned; (-)) [Reference Example 1, (-)-8-fluoro-2-methyl-9-(4-methyl-1-piperazinyl)-6-oxo-1,2-dihydro-6H-pyrrolo[3,2,1-ij]quinoline-5-carboxylic acid, reference compound] | – | – | – | – | – | – | – | – | – | – | MIC (A.calcoaceticus Ac-54; in vitro, listed as F): 3.13 µg/mL (≈ 9.06 µM); MIC (E.coli NIHJ JC-2; in vitro, listed as F): 0.78 µg/mL (≈ 2.26 µM); MIC (E.facalis ATCC-21212; listed as F): 100 µg/mL (≈ 290 µM); MIC (K.pneumoniae NCTC-9632; in vitro, listed as F): 0.78 µg/mL (≈ 2.26 µM); MIC (M.morganii IID Kono; listed as F): 0.78 µg/mL (≈ 2.26 µM); MIC (P.aeruginosa ATCC-10145; in vitro, listed as F): 25 µg/mL (≈ 72.4 µM); MIC (P.aeruginosa E-2; in vitro, listed as F): 12.5 µg/mL (≈ 36.2 µM); MIC (P.mirabilis ATCC-29906; in vitro, listed as F): 3.13 µg/mL (≈ 9.06 µM); MIC (S.aureus FDA209P; listed as F): 3.13 µg/mL (≈ 9.06 µM); MIC (S.marcoscons IFO-12648; listed as F): 0.78 µg/mL (≈ 2.26 µM) |
| CC1CN(c2c(F)cc3c(=O)c(C(=O)O)cn4c3c2CC4C)CCN1 (single isomer, unassigned; (+)) [Example 20, (+)-8-fluoro-2-methyl-9-(3-methyl-1-piperazinyl)-6-oxo-1,2-dihydro-6H-pyrrolo[3,2,1-ij]quinoline-5-carboxylic acid] | – | – | – | – | – | – | – | – | – | – | solubility [1, 10]: 143 mg/mL |
| CC1CN(c2c(F)cc3c(=O)c(C(=O)O)cn4c3c2CC4C)CCN1.Cl (single isomer, unassigned; (+)) [Example 8, (+)-8-fluoro-2-methyl-9-(3-methyl-1-piperazinyl)-6-oxo-1,2-dihydro-6H-pyrrolo[3,2,1-ij]quinoline-5-carboxylic acid hydrochloride] | 0.39 µg/mL | 0.05 µg/mL | 3.13 µg/mL | 0.05 µg/mL | 0.012 µg/mL | 0.39 µg/mL | 0.39 µg/mL | 0.1 µg/mL | 0.2 µg/mL | 0.1 µg/mL | Ratio of dissolution to water: 385 mg/mL |
| CC1CN(c2c(F)cc3c(=O)c(C(=O)O)cn4c3c2CC4C)CCN1.Cl (single isomer, unassigned; (-)) [Reference Example 2, (-)-8-fluoro-2-methyl-9-(3-methyl-1-piperazinyl)-6-oxo-1,2-dihydro-6H-pyrrolo[3,2,1-ij]quinoline-5-carboxylic acid hydrochloride, reference compound] | – | – | – | – | – | – | – | – | – | – | Ratio of dissolution to water: 167 mg/mL |
